Laboratory results taken from patent publication US20100267561A1, “HERBICIDAL PYRIDAZINONE DERIVATIVES” (priority 2007, published 2010).
Read-outs that look alike come from different tables or passages of the source.

Columns and labels:
Assay type in all cases: in vivo
[1] = test system: Italian ryegrass (Lolium multiflorum); test: Test B pre-/postemergence plant response; conditions: for pest or weed control at 31 g/ha / pest or weed control at 62 g/ha: Lolium multiflorum, read-out: Plant response rating, Ryegrass, Italian; for pest or weed control at 31 g/ha: 31 g ai/ha; for pest or weed control at 62 g/ha: 62 g ai/ha, 100 complete control
Summary of the method: (§1)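 Seeds were sown and sprayed preemergence, while plants at 2 to 18 cm (1- to 4-leaf stage) got postemergence sprays. Compounds were formulated in a non-phytotoxic solvent mixture with surfactant. After 13 to 15 days in a greenhouse, injury was rated visually against untreated controls, 0 (no effect) to 100 (complete control).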

[2] = test system: blackgrass (Alopecurus myosuroides); test: Test B pre-/postemergence plant response; conditions: for pest or weed control at 31 g/ha: 31 g ai/ha; for pest or weed control at 62 g/ha: 62 g ai/ha, 100 complete control
Summary of the method: as §1

[3] = test system: catchweed bedstraw (Galium aparine); test: Test B pre-/postemergence plant response; conditions: Preemergence
Summary of the method: as §1

[4] = test system: common (oilseed) sunflower (Helianthus annuus); test: Test B pre-/postemergence plant response; conditions: Preemergence
Summary of the method: as §1

[5] = test system: common ragweed (Ambrosia elation); test: Test B pre-/postemergence plant response; conditions: for pest or weed control at 31 g/ha / pest or weed control at 62 g/ha: Ambrosia, read-out: Plant response rating, Ragweed; for pest or weed control at 31 g/ha: 31 g ai/ha; for pest or weed control at 62 g/ha: 62 g ai/ha, 100 complete control
Summary of the method: as §1

[6] = test system: downy bromegrass (Bromus tectorum); test: Test B pre-/postemergence plant response; conditions: for pest or weed control at 31 g/ha: 31 g ai/ha
Summary of the method: as §1

[7] = test system: eastern black (E.B.) nightshade (Solanum ptycanthum); test: Test B pre-/postemergence plant response; conditions: Preemergence
Summary of the method: as §1

[8] = test system: johnsongrass (Sorghum halepense); test: Test B pre-/postemergence plant response; conditions: for pest or weed control at 31 g/ha / pest or weed control at 62 g/ha: Sorghum halepense, read-out: Plant response rating, Johnsongrass; for pest or weed control at 31 g/ha: 31 g ai/ha; for pest or weed control at 62 g/ha: 62 g ai/ha, 100 complete control
Summary of the method: as §1

[9] = test system: large crabgrass (Digitaria sanguinalis); test: Test B pre-/postemergence plant response; conditions: for pest or weed control at 31 g/ha: 31 g ai/ha; for pest or weed control at 62 g/ha: 62 g ai/ha, 100 complete control
Summary of the method: as §1

[10] = test system: morningglory (Ipomoea coccinea); test: Test B pre-/postemergence plant response; conditions: for pest or weed control at 31 g/ha / pest or weed control at 62 g/ha: Ipomoea, read-out: Plant response rating, Morningglory; for pest or weed control at 31 g/ha: 31 g ai/ha; for pest or weed control at 62 g/ha: 62 g ai/ha, 100 complete control
Summary of the method: as §1

[11] = test system: pigweed (Amaranthus retroflexus); test: Test B pre-/postemergence plant response; conditions: for pest or weed control at 31 g/ha / pest or weed control at 62 g/ha: Amaranthus retroflexus, read-out: Plant response rating, Pigweed; for pest or weed control at 31 g/ha: 31 g ai/ha; for pest or weed control at 62 g/ha: 62 g ai/ha, 100 complete control
Summary of the method: as §1

[12] = test system: wild oat (Avena fatua); test: Test B pre-/postemergence plant response; conditions: for pest or weed control at 31 g/ha / pest or weed control at 62 g/ha: Avena fatua, read-out: Plant response rating, Oat, Wild; for pest or weed control at 31 g/ha: 31 g ai/ha; for pest or weed control at 62 g/ha: 62 g ai/ha, 100 complete control
Summary of the method: as §1

[13] = test system: barnyardgrass (Echinochloa crus-galli); test: Test B flooded paddy test plant response; conditions: Echinochloa crus-galli, read-out: Plant response rating, Barnyardgrass
Summary of the method: (§2)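 Rice, umbrella sedge, ducksalad and barnyardgrass at 2-leaf stage; pots flooded to 3 cm, compounds applied into paddy water, depth held throughout. Greenhouse 13 to 15 days, then visual rating vs untreated controls on 0–100 scale (0 no effect, 100 complete control); dash means no test result.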

[14] = test system: rice (Oryza sativa); test: Test B flooded paddy test plant response; conditions: Oryza sativa, read-out: Plant response rating, Rice
Summary of the method: as §2

[15] = 8 g ai/ha, postemergence, 0-100 scale
[16] = 16 g ai/ha, postemergence, 0-100 scale
[17] = post-emergence, Postemergence, scale 0 to 100
[18] = post-emergence, Postemergence, scale 0 to 100, 0 no effect
[19] = pre-emergence, Preemergence, scale 0 to 100 (0 no effect, 100 complete control)
[20] = pre-emergence, Preemergence, 0 to 100 scale, 0 no effect
[21] = Preemergence, 8 g ai/ha, scale 0 to 100 (0 no effect, 100 complete control)
[22] = Preemergence, 16 g ai/ha, scale 0 to 100
[23] = 8 g ai/ha, scale 0 to 100 (0 no effect, 100 complete control)
[24] = Flood (flooded paddy test), 62 g ai/ha, scale 0 to 100, 0 no effect, 100 complete control
[25] = Flood (flooded paddy test), 125 g ai/ha, scale 0 to 100, 0 no effect, 100 complete control
[26] = Flood (flooded paddy test), 250 g ai/ha, scale 0 to 100, 0 no effect, 100 complete control
[27] = Flood, 31 g ai/ha, scale 0 to 100

Cc1cc(-c2ccc(Br)cc2)nn1-c1c(OC(=O)C2CC2)cnn(C(=O)C2CC2)c1=O [Compound 80, 5-[3-(4-bromophenyl)-5-methyl-1H-pyrazol-1-yl]-1-(cyclopropylcarbonyl)-1,6-dihydro-6-oxo-4-pyridazinyl cyclopropanecarboxylate]
90: Johnsongrass plant response rating [8, 16]
60: Johnsongrass plant response rating [8, 21]
80: Ryegrass, Italian plant response rating [1, 15] | Blackgrass plant response rating [2, 15]
85%: pest or weed control at 16 g/ha ([2]; Alopecurus myosuroides, post-emergence, Postemergence, 16 g ai/ha, scale 0 to 100, read-out: Plant response rating, Blackgrass) | pest or weed control at 31 g/ha ([6]; Bromus tectorum, pre-emergence, Preemergence, scale 0 to 100 (0 no effect, 100 complete control), read-out: Plant response rating, Bromegrass, Downy) | pest or weed control at 62 g/ha ([6]; Bromus tectorum, pre-emergence, Preemergence, 62 g ai/ha, 0 to 100 scale, 0 no effect, 100 complete control, read-out: Plant response rating, Bromegrass, Downy)
98: Ryegrass, Italian plant response rating [1, 16] | Crabgrass, Large plant response rating [9, 15] | Crabgrass, Large plant response rating [9, 22]
80%: pest or weed control at 31 g/ha [8, 19]
70: Blackgrass plant response rating [2, 21] | Blackgrass plant response rating [2, 22]
90%: pest or weed control at 31 g/ha ([6]; Bromus tectorum, post-emergence, Postemergence, scale 0 to 100, read-out: Plant response rating, Bromegrass, Downy)
30: Bromegrass, Downy plant response rating [6, 22] | Oat, Wild plant response rating [12, 21]
45%: pest or weed control at 16 g/ha ([6]; Bromus tectorum, post-emergence, Postemergence, 16 g ai/ha, scale 0 to 100, read-out: Plant response rating, Bromegrass, Downy)
70%: pest or weed control at 62 g/ha [12, 20]
55%: pest or weed control at 62 g/ha [11, 20]
100%: pest or weed control at 31 g/ha [1, 17] | pest or weed control at 62 g/ha [1, 18] | pest or weed control at 62 g/ha [1, 20] | pest or weed control at 62 g/ha ([2]; Alopecurus myosuroides, post-emergence, Postemergence, scale 0 to 100, 0 no effect, read-out: Plant response rating, Blackgrass) | pest or weed control at 31 g/ha ([2]; Alopecurus myosuroides, pre-emergence, Preemergence, scale 0 to 100 (0 no effect, 100 complete control), read-out: Plant response rating, Blackgrass) | pest or weed control at 62 g/ha ([2]; Alopecurus myosuroides, pre-emergence, Preemergence, 0 to 100 scale, 0 no effect, read-out: Plant response rating, Blackgrass) | pest or weed control at 62 g/ha [8, 18] | pest or weed control at 62 g/ha [8, 20] | pest or weed control at 16 g/ha ([9]; Digitaria sanguinalis, post-emergence, Postemergence, 16 g ai/ha, scale 0 to 100, read-out: Plant response rating, Crabgrass, Large) | pest or weed control at 31 g/ha ([9]; Digitaria sanguinalis, post-emergence, Postemergence, scale 0 to 100, read-out: Plant response rating, Crabgrass, Large) | pest or weed control at 62 g/ha ([9]; Digitaria sanguinalis, post-emergence, Postemergence, scale 0 to 100, 0 no effect, read-out: Plant response rating, Crabgrass, Large) | pest or weed control at 31 g/ha ([9]; Digitaria sanguinalis, pre-emergence, Preemergence, scale 0 to 100 (0 no effect, 100 complete control), read-out: Plant response rating, Crabgrass, Large) | pest or weed control at 62 g/ha ([9]; Digitaria sanguinalis, pre-emergence, Preemergence, 0 to 100 scale, 0 no effect, read-out: Plant response rating, Crabgrass, Large) | pest or weed control at 31 g/ha [12, 17] | pest or weed control at 62 g/ha [12, 18]
85: Oat, Wild plant response rating [12, 15]
40%: pest or weed control at 31 g/ha [1, 19]
0: Ryegrass, Italian plant response rating [1, 21] | Galium plant response rating [3, 23] | Galium plant response rating ([3]; 16 g ai/ha, scale 0 to 100) | Sunflower plant response rating [4, 23] | Sunflower plant response rating ([4]; 16 g ai/ha, scale 0 to 100) | Ragweed plant response rating [5, 15] | Ragweed plant response rating [5, 16] | Ragweed plant response rating [5, 21] | Ragweed plant response rating [5, 22] | Bromegrass, Downy plant response rating [6, 21] | Nightshade, E. B. plant response rating [7, 23] | Crabgrass, Large plant response rating [9, 21] | Morningglory plant response rating [10, 15] | Morningglory plant response rating [10, 16] | Morningglory plant response rating [10, 21] | Morningglory plant response rating [10, 22] | Pigweed plant response rating [11, 15] | Pigweed plant response rating [11, 16] | Pigweed plant response rating [11, 21] | Pigweed plant response rating [11, 22]
65: Johnsongrass plant response rating [8, 22]
0%: pest or weed control at 31 g/ha ([3]; Galium aparine, pre-emergence, 31 g ai/ha, scale 0 to 100 (0 no effect, 100 complete control), read-out: Plant response rating, Galium) | pest or weed control at 62 g/ha ([3]; Galium aparine, pre-emergence, 62 g ai/ha, 0 to 100 scale, 0 no effect, 100 complete control, read-out: Plant response rating, Galium) | pest or weed control at 31 g/ha ([4]; Helianthus annuus, pre-emergence, 31 g ai/ha, scale 0 to 100 (0 no effect, 100 complete control), read-out: Plant response rating, Sunflower) | pest or weed control at 62 g/ha ([4]; Helianthus annuus, pre-emergence, 62 g ai/ha, 0 to 100 scale, 0 no effect, 100 complete control, read-out: Plant response rating, Sunflower) | pest or weed control at 31 g/ha [5, 17] | pest or weed control at 62 g/ha [5, 18] | pest or weed control at 31 g/ha [5, 19] | pest or weed control at 62 g/ha [5, 20] | pest or weed control at 31 g/ha ([7]; Solanum, pre-emergence, 31 g ai/ha, scale 0 to 100 (0 no effect, 100 complete control), read-out: Plant response rating, Nightshade, E. B.) | pest or weed control at 62 g/ha ([7]; Solanum, pre-emergence, 62 g ai/ha, 0 to 100 scale, 0 no effect, 100 complete control, read-out: Plant response rating, Nightshade, E. B.) | pest or weed control at 31 g/ha [10, 17] | pest or weed control at 62 g/ha [10, 18] | pest or weed control at 31 g/ha [10, 19] | pest or weed control at 62 g/ha [10, 20] | pest or weed control at 31 g/ha [11, 17] | pest or weed control at 62 g/ha [11, 18] | pest or weed control at 31 g/ha [11, 19] | pest or weed control at 62 g/ha [13, 24] | pest or weed control at 125 g/ha [13, 25] | pest or weed control at 250 g/ha [13, 26] | pest or weed control at 31 g/ha [13, 27] | plant injury at 62 g/ha [14, 24] | plant injury at 125 g/ha [14, 25] | plant injury at 250 g/ha [14, 26] | plant injury at 31 g/ha [14, 27]
95%: pest or weed control at 31 g/ha ([2]; Alopecurus myosuroides, post-emergence, Postemergence, scale 0 to 100, read-out: Plant response rating, Blackgrass) | pest or weed control at 31 g/ha [8, 17]
60%: pest or weed control at 31 g/ha [12, 19]
100: Oat, Wild plant response rating [12, 16]
40: Ryegrass, Italian plant response rating [1, 22] | Bromegrass, Downy plant response rating [6, 15] | Oat, Wild plant response rating [12, 22]
75: Johnsongrass plant response rating [8, 15]
